# From the supplement of paper PMC10307832
# Assays:
# Experiment in all cases: relative viability (nuclei count vs DMSO), 5 days (fraction); higher = more cells survive
# R406 + Crizotinib = compound: COc1cc(Nc2ncc(F)c(Nc3ccc4c(n3)NC(=O)C(C)(C)O4)n2)cc(OC)c1OC [R406] + C[C@@H](Oc1cc(-c2cnn(C3CCNCC3)c2)cnc1N)c1c(Cl)ccc(F)c1Cl [Crizotinib] (partner 1 µM)
# Summary of the method: (§1)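 Each reported value is a median over duplicate plates. It expresses relative viability: treated-well nuclei count divided by vehicle-well nuclei count. Lung cancer cell lines in 1536-well plates were dosed by pin tool a day after seeding, alone with one drug or with a fixed anchor-drug dose plus five library-drug doses (not always all listed) in √10 steps, and nuclei were counted after 5 days.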
# Daporinad + OSI-027 = compound: O=C(/C=C/c1cccnc1)NCCCCC1CCN(C(=O)c2ccccc2)CC1 [Daporinad] + COc1cccc2cc(-c3nc([C@H]4CC[C@H](C(=O)O)CC4)n4ncnc(N)c34)[nH]c12 [OSI-027] (partner 0.5 µM)
# Summary of the method: as §1
# R406 + OSI-027 = compound: COc1cc(Nc2ncc(F)c(Nc3ccc4c(n3)NC(=O)C(C)(C)O4)n2)cc(OC)c1OC [R406] + COc1cccc2cc(-c3nc([C@H]4CC[C@H](C(=O)O)CC4)n4ncnc(N)c34)[nH]c12 [OSI-027] (partner 0.5 µM)
# Summary of the method: as §1
# R406 + Decitabine = compound: COc1cc(Nc2ncc(F)c(Nc3ccc4c(n3)NC(=O)C(C)(C)O4)n2)cc(OC)c1OC [R406] + Nc1ncn([C@H]2C[C@H](O)[C@@H](CO)O2)c(=O)n1 [Decitabine] (partner 2 µM)
# Summary of the method: as §1
Cell Line,relative viability (R406 + Crizotinib; first compound 0.08 µM),relative viability (R406 + Crizotinib; first compound 0.253 µM),relative viability (R406 + Crizotinib; first compound 0.8 µM),relative viability (R406 + Crizotinib; first compound 2.53 µM),relative viability (R406 + Crizotinib; first compound 8 µM),relative viability (Daporinad + OSI-027; first compound 0.0005 µM),relative viability (Daporinad + OSI-027; first compound 0.001581 µM),relative viability (Daporinad + OSI-027; first compound 0.005 µM),relative viability (Daporinad + OSI-027; first compound 0.01581 µM),relative viability (R406 + OSI-027; first compound 0.08 µM),relative viability (R406 + OSI-027; first compound 0.253 µM),relative viability (R406 + OSI-027; first compound 0.8 µM),relative viability (R406 + OSI-027; first compound 2.53 µM),relative viability (R406 + OSI-027; first compound 8 µM),relative viability (R406 + Decitabine; first compound 0.08 µM),relative viability (R406 + Decitabine; first compound 0.253 µM),relative viability (R406 + Decitabine; first compound 0.8 µM),relative viability (R406 + Decitabine; first compound 2.53 µM),relative viability (R406 + Decitabine; first compound 8 µM)
NCI-H1975,0.949,1.13,0.977,0.46,0.221,0.753,0.738,0.8,0.672,0.699,0.678,0.854,0.252,0.15,0.368,0.401,0.386,0.31,0.19
CAL-12T,0.693,0.746,0.731,0.503,0.121,0.65,0.541,0.719,0.33,0.654,0.702,0.895,0.133,0.209,–,–,–,–,–
NCI-H2342,–,–,–,–,–,0.674,0.552,0.602,0.613,0.536,0.569,0.653,0.61,0.513,0.681,0.768,0.759,0.668,0.691
HCC-44,0.771,0.963,0.806,0.721,0.341,0.481,0.608,0.462,0.639,0.435,0.662,0.599,0.293,0.363,0.924,1.04,0.856,1,1.05
EKVX,0.949,0.986,1.09,0.867,0.806,0.692,0.738,0.683,0.806,0.721,0.739,0.778,0.601,0.552,0.341,0.365,0.316,0.336,0.354
NCI-H1651,0.869,0.914,0.853,0.815,0.929,0.747,0.767,0.744,0.604,0.632,0.749,0.804,0.621,0.286,0.498,0.75,0.654,0.531,0.6
NCI-H1648,–,–,–,–,–,0.231,0.26,0.262,0.244,–,–,0.255,0.249,0.28,0.53,0.527,0.483,0.515,0.36
NCI-H1703,0.623,–,0.662,0.199,0.129,–,–,–,–,–,–,–,–,–,–,–,–,–,–
Calu-6,0.697,0.954,0.909,0.494,0.36,–,–,–,–,–,–,–,–,–,–,–,–,–,–
EBC-1,0.155,0.231,0.153,0.209,0.166,–,–,–,–,–,–,–,–,–,–,–,–,–,–
A-427,1,1.14,0.914,0.629,0.273,0.435,0.471,0.503,0.31,0.568,0.523,0.508,0.245,0.238,0.583,0.626,0.717,0.514,0.571
NCI-H2347,0.588,0.538,0.889,0.556,0.487,0.463,0.377,0.335,0.489,0.381,0.436,0.479,0.278,0.253,0.666,0.645,0.594,0.631,0.562
NCI-H1355,1.09,1.14,1.25,0.909,0.687,0.375,0.433,0.471,0.548,0.474,0.404,0.456,0.163,0.189,0.335,0.348,0.377,0.345,0.367
NCI-H1944,1.1,1.24,1.04,0.875,0.737,0.447,0.422,0.527,0.517,0.398,0.41,0.419,0.304,0.242,0.393,0.41,0.358,0.383,0.399
RERF-LC-KJ,0.762,0.838,0.875,0.81,0.771,0.541,0.63,0.648,0.612,0.609,0.588,0.623,0.432,0.392,0.706,0.628,0.72,0.252,0.529
NCI-H2228,0.572,0.435,0.528,0.164,0.101,0.561,0.552,0.915,0.731,0.529,0.574,0.867,0.138,0.163,–,–,–,–,–
HOP-62,1.12,1.21,0.844,1.1,1.17,0.812,0.935,0.877,0.665,0.774,0.958,0.854,0.64,0.654,0.26,0.229,0.22,0.221,0.438
HARA,0.902,1.06,1.13,1.09,0.376,0.488,0.56,0.55,0.355,0.621,0.668,0.591,0.22,0.198,0.414,0.597,0.586,0.584,0.178
PC-14,0.92,1.06,0.862,0.79,0.687,0.708,1.04,0.917,0.604,0.795,1.11,1.41,0.428,0.121,0.301,0.237,0.25,0.0789,0.0868
NCI-H1755,0.81,0.954,0.861,0.641,0.188,0.628,0.758,0.761,0.778,0.667,0.78,0.692,0.331,0.376,0.652,0.707,0.676,0.733,0.679

Cell Line,relative viability (R406 + Crizotinib; first compound 0.08 µM),relative viability (R406 + Crizotinib; first compound 0.253 µM),relative viability (R406 + Crizotinib; first compound 0.8 µM),relative viability (R406 + Crizotinib; first compound 2.53 µM),relative viability (R406 + Crizotinib; first compound 8 µM),relative viability (Daporinad + OSI-027; first compound 0.0005 µM),relative viability (Daporinad + OSI-027; first compound 0.001581 µM),relative viability (Daporinad + OSI-027; first compound 0.005 µM),relative viability (Daporinad + OSI-027; first compound 0.01581 µM),relative viability (R406 + OSI-027; first compound 0.08 µM),relative viability (R406 + OSI-027; first compound 0.253 µM),relative viability (R406 + OSI-027; first compound 0.8 µM),relative viability (R406 + OSI-027; first compound 2.53 µM),relative viability (R406 + OSI-027; first compound 8 µM),relative viability (R406 + Decitabine; first compound 0.08 µM),relative viability (R406 + Decitabine; first compound 0.253 µM),relative viability (R406 + Decitabine; first compound 0.8 µM),relative viability (R406 + Decitabine; first compound 2.53 µM),relative viability (R406 + Decitabine; first compound 8 µM)
HCC-78,0.356,0.318,0.398,0.302,0.269,0.378,–,0.383,0.368,0.335,0.385,0.397,0.386,0.323,0.566,0.785,0.702,0.749,0.61
IA-LM,0.972,1.21,1.01,1.11,0.657,–,–,–,–,–,–,–,–,–,–,–,–,–,–
NCI-H322M,0.811,1.06,0.978,0.611,0.438,0.526,0.617,0.613,0.52,0.524,0.514,0.602,0.348,0.347,0.665,0.669,0.704,0.594,0.557
NCI-H3122,0.286,0.257,0.247,0.25,0.259,0.851,1.18,0.98,0.845,0.956,1.06,1.01,0.319,0.78,0.368,0.398,0.328,0.508,0.482
NCI-H441,0.72,0.975,0.846,0.599,0.461,0.552,0.856,0.805,0.671,0.528,0.683,0.574,0.255,0.408,0.231,0.248,0.276,0.217,0.24
COR-L23,0.612,0.797,0.733,0.708,0.383,0.737,0.772,0.814,0.255,0.704,0.794,0.995,0.527,0.397,0.397,0.447,0.512,0.339,0.326
NCI-H2087,0.825,1.26,0.899,0.983,0.936,0.474,0.693,0.694,0.538,0.44,0.597,0.658,–,0.499,0.24,0.264,0.301,0.221,0.152
LC-2-ad,0.436,0.456,0.455,0.381,0.357,0.832,1.12,1.06,1.01,0.872,0.878,0.838,0.504,0.34,0.775,0.776,0.797,0.533,0.401
NCI-H1915,0.898,0.975,0.959,0.782,0.874,0.613,0.641,0.719,0.712,0.619,0.708,0.581,–,0.4,0.258,0.298,0.265,0.293,0.278
NCI-H1623,–,–,–,–,–,0.413,0.439,0.466,0.475,0.408,0.429,0.398,0.411,0.43,–,–,–,–,–
NCI-H2023,0.705,0.855,0.681,0.254,0.145,0.35,0.458,0.395,0.455,0.413,0.464,0.488,0.134,0.0924,0.246,0.254,0.247,0.127,0.195
COR-L 105,0.955,0.89,0.822,0.8,0.263,0.671,0.748,0.883,0.694,0.659,0.612,0.752,0.405,0.235,0.593,0.561,0.758,0.563,0.475
SK-LU-1,0.997,1.07,1.15,0.424,0.155,0.358,0.335,0.454,0.348,0.312,0.337,0.424,0.153,0.0841,0.583,0.832,0.728,0.599,0.476
NCI-H522,–,–,–,–,–,0.612,0.942,0.762,0.667,0.681,0.742,0.954,0.501,0.593,0.726,0.688,0.762,0.587,0.616
NCI-H1299,0.941,0.946,0.977,1.03,0.543,–,–,–,–,–,–,–,–,–,–,–,–,–,–
SW 900,–,–,–,–,–,0.42,0.475,0.745,0.463,0.649,0.874,0.75,0.113,0.247,0.486,0.469,0.446,0.555,0.173
NCI-H1395,–,–,–,–,–,0.644,0.64,0.71,0.739,0.592,0.73,0.754,0.429,0.424,0.685,0.782,0.72,0.572,0.628
A549,0.785,0.837,0.941,0.337,0.175,–,–,–,–,–,–,–,–,–,0.22,0.261,0.257,0.258,0.311
NCI-H1793,–,–,–,–,–,0.25,0.252,0.343,0.254,0.251,0.273,0.303,0.116,0.158,0.528,0.469,0.446,0.409,0.177
NCI-H1563,0.791,0.868,0.891,0.913,0.619,0.754,0.749,0.807,0.719,0.736,0.734,0.831,0.638,0.543,–,–,–,–,–
